Experimental findings from a melting point compilation (Tetko et al.; mined from patent text by program, amines drawn as free bases though some values may be those of a salt) are described below.

The structures appear in SMILES notation.

Broadly, the melting point is the temperature, or range, at which the solid turns liquid.

`CCOC(=O)c1cc(-c2ccc(Br)cc2)c(=O)n(Cc2ccc(Cl)cc2Cl)c1` came in with a melting point of 152 to 154 °C.
For `COC(=O)c1ccc(OC)cc1-c1ccc(C(F)(F)F)cc1`, the melting point lay within 93 to 94 °C.
Then `NC(=O)c1nc(C2OC(CO)C(O)C2O)n[nH]1` (stereo unspecified), with 193 to 195 °C; and `COC(=O)c1cc2cc(C(=O)c3ccc(F)cc3)sc2s1`, with 220 °C.
As to `CC[C@H](C)[C@@H](CO)NS(=O)(=O)c1ccc(Cl)c(N)c1`, the melting point lay within 89 to 92 °C.
Next, `C=CCN(C1CCN(C)CC1)S(=O)(=O)c1ccc(Nc2nccc(Nc3ccc(F)cc3)n2)cc1`: 167 °C.
Next, `CC(CN)C1=CC(C)(C(=O)O)CC=C1` (stereo unspecified): 236 to 238 °C; `CCSc1c[nH]nc1C1=CCCN(C)C1`: 95 to 97 °C; `O=c1[nH]c2cc3cc(N4CCCC4)ccc3nc2[nH]1`: over 300 °C.
Then `CCCc1nc2cc(CC(=O)O)ccc2o1`, with 67 to 68 °C.
The compound `Cn1cc(OC(=O)c2ccccc2)c(=O)c2cccc(F)c21` showed a melting point of 179 to 181 °C.
Next, `CCC1CC(=O)C=C(c2ccc(OCC(=O)O)c(Cl)c2Cl)C1` (stereo unspecified): 163 to 165 °C; `O=C(CC1CCN(Cc2ccccc2)CC1)c1ccc(N2CCCC2)cc1`: 110 to 112 °C.
Next, `CC1=C(c2ccncc2)CC(C)C(=O)N1` (stereo unspecified): 148 to 150 °C.
Next, `Cc1nnc2n1-c1ccccc1C(c1ccccc1Cl)OC2C` (stereo unspecified): 176 to 178 °C.
On to `N=C(N)Nc1nc(CSCCNC2=NS(=O)(=O)N=C2N)cs1`, for which the melting point was 134 to 149 °C.
The compound `COC(=O)c1nc(Nc2cccc(C(F)(F)F)c2)sc1-c1ccccc1` had a melting point of 147 to 149 °C.
In turn, `CC(C)(c1ccc(Oc2cccc(N)c2)cc1)c1ccc(Oc2cccc(N)c2)cc1` returned a melting point of 106 to 108 °C.
In turn, `CCCCC(=O)OCC=C(C)CCC=C(C)CCC=C(C)CCC=C(C)CCC=C(C)CCC=C(C)CCC=C(C)CCC=C(C)CCC=C(C)C` displayed a melting point of 34 to 35 °C.
In turn, `Oc1c(F)cc(Oc2ncc(C(F)(F)F)cc2F)cc1F` registered a melting point of 125 to 128 °C.
Then `Clc1ccc2c3c(cccc13)C(NCCCn1ccnc1)=N2`, with 177 to 178 °C.
Then `Nc1cc(OCc2ccccc2)c2ncccc2c1`, with 183 to 185 °C; and `N#CC1CN1Cc1ccccc1` (stereo unspecified), with 81 to 83 °C; and `O=C(O)c1cn(-c2ccc(F)cc2)c2c(F)c(N3Cc4cccc(Cl)c4C3)c(F)cc2c1=O`, with 283 to 291 °C.
Next, `Cn1ncnc1COc1nn2c(-c3ccccc3)nnc2cc1-c1ccco1`: 263 to 265 °C.
In turn, `Cc1ccc(N2C(=O)NC(=O)C23CCN(C)CC3)cc1` had a melting point of 172 to 174 °C.
In turn, `O=C(CCl)Nc1ccc2c(c1NC(=O)c1ccco1)C(=O)c1ccccc1C2=O` registered a melting point of 211 to 212 °C.
Then `O=C(O)c1cc(O)c(I)c(O)c1`, with 245 to 248 °C.
Compound `CNc1nc(-c2cccc(NC(=O)c3ccc4c(c3)OCO4)c2)c2cc(OC)c(OC)cc2n1` showed a melting point of 205 to 207 °C.
Consider `COc1ccc2c(C(=O)N(CC(=O)O)C(=O)N(C)C)cccc2c1C(F)(F)F`, for which the melting point was in the range of 145 to 147 °C.
Next, `Cc1cc(N(C)CC(=O)N2CCN(Cc3ccc4c(c3)OCO4)CC2)ccc1Oc1ccc([N+](=O)[O-])cn1`: 142 to 143 °C.
The compound `CC(C)(C)OC(=O)N1CSCC1C(=O)Nc1ccc(-n2nc(C(F)(F)F)cc2C(F)(F)F)cc1` (stereo unspecified) returned a melting point of 82 to 84 °C.
Next, `CCCCCCC1(CCCCCC)c2cc(C#N)ccc2-c2ccc(C#N)cc21`: 116 to 118 °C.
Then `Cc1c(NC(=O)OCCCl)cc([N+](=O)[O-])c(N)c1C`, with 151 °C; and `Cn1c(=O)c(-c2ccc(Cl)cc2Cl)cc2c3cc(-c4ncco4)ccc3n(C)c21`, with 232 to 233 °C; and `COC(=O)C=Cc1ccc(C)s1`, with 59 to 60 °C.
